We go through 16 compounds from ChEMBL document CHEMBL2010677, “Anti-inflammatory and PPAR transactivational effects of secondary metabolites from the roots of Asarum sieboldii” (Bioorg Med Chem Lett, 2012).

The term EC50 denotes the concentration needed to bring the measured effect to its halfway point. Broadly, the IC50 is the concentration that gives 50% inhibition.

Structures are written as SMILES.

Data set [1] in a line: (§1) Transactivation of PPAR expressed in HepG2 cells after 20 hrs by luminescence assay. The format is cell-based. The settings on record: HepG2, 20 h.
The target of data set [2] is T1, Peroxisome proliferator-activated receptor alpha (Homo sapiens, UniProt Q07869).
T1 sequence (Q07869 whole entry): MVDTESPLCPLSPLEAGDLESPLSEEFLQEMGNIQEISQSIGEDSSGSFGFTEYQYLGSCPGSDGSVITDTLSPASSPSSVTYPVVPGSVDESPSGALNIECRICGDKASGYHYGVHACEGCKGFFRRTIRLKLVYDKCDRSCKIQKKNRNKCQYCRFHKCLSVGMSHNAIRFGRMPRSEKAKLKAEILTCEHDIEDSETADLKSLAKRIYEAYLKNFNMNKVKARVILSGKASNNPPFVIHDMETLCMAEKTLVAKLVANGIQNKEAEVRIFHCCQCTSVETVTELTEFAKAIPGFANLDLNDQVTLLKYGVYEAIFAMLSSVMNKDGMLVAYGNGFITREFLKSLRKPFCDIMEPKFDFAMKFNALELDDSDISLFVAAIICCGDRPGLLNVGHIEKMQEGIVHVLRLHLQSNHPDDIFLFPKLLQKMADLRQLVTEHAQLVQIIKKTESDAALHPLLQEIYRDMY
Kind of data set: (§2) Transactivation of GAL4-fused PPARalpha LBD expressed in HepG2 cells after 20 hrs by luminescence assay. The format is cell-based.

Data set [3] has as its target T2, Peroxisome proliferator-activated receptor gamma (Homo sapiens, UniProt P37231).
T2 sequence (P37231 whole entry): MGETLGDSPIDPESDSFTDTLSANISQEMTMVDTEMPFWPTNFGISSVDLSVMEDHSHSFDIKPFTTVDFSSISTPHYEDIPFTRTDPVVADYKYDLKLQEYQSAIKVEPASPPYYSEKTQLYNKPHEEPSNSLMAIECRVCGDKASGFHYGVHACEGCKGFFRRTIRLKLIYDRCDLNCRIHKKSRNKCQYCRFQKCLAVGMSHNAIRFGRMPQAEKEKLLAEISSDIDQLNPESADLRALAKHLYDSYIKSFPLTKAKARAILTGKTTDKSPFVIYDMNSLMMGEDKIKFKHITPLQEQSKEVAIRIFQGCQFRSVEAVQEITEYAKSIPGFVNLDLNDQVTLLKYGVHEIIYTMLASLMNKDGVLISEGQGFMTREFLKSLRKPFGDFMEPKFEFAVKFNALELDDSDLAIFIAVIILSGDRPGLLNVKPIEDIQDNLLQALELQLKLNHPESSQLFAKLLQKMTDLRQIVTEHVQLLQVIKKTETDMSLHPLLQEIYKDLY
As to the kind of experiment: Transactivation of GAL4-fused PPARgamma LBD expressed in HepG2 cells after 20 hrs by luminescence assay. The format is cell-based.

The target of data set [4] is T3, Peroxisome proliferator-activated receptor delta (Homo sapiens, UniProt Q03181).
T3 sequence (Q03181 whole entry): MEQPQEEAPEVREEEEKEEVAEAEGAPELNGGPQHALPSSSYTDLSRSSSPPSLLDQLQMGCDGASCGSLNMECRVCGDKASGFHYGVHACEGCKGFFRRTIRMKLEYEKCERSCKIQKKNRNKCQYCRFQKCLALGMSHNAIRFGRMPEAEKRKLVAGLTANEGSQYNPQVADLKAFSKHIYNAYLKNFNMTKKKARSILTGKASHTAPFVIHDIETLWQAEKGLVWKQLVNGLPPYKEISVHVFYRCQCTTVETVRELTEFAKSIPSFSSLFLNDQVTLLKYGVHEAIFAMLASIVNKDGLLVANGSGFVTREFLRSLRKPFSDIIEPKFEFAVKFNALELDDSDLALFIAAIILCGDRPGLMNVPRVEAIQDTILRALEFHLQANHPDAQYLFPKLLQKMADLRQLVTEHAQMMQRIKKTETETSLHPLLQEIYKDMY
Kind of data set: Transactivation of GAL4-fused PPARbeta LBD expressed in HepG2 cells after 20 hrs by luminescence assay. The format is cell-based.

In data set [5] the test system is HepG2. Kind of data set: Cytotoxicity against human HepG2 cells by MTT assay. The format is cell-based. (In general: Formazan colour is commonly taken as a measure of viable cells.)
The subject of data set [6] is HepG2. The data set is described as §1. The format is cell-based.
A short description of data set [7]: Inhibition of TNFalpha-induced NFkappaB transcriptional activity in human HepG2 cells pretreated for 1 hr before TNFalpha challenge by luciferase reporter gene analysis.
Data set [8] has as its system HepG2. Kind of data set: Inhibition of NFkappaB-mediated iNOS mRNA expression in human TNFalpha-stimulated human HepG2 cells pretreated for 1 hr before TNFalpha challenge measured after 6 hrs by RT-PCR analysis. The format is cell-based.
Data set [9] has as its system HepG2. As to the kind of experiment: Inhibition of NFkappaB-mediated COX2 mRNA expression in human TNFalpha-stimulated human HepG2 cells by RT-PCR analysis. The format is cell-based.
The target of data set [10] is T4, Peroxisome proliferator-activated receptor alpha (Homo sapiens) (UniProt Q07869).
T4 sequence (whole entry): T1 sequence (Q07869 whole entry)
The data set is described as §2. The format is cell-based.

As for `C=CCc1ccc(OC)c(OC)c1` [METHYLEUGENOL], the 50% effective concentration (EC50) in data set [1] is 28 µM; in [2], 46.5 µM; in data set [3], 40 µM; in [4], 50.6 µM. The Activity entry in data set [5] was “Non-toxic”.
For the compound `COc1cc([C@H]2OC[C@H]3[C@@H]2CO[C@H]3c2ccc(O)c(OC)c2)ccc1O` [PINORESINOL], the EC50 in [1] was 10.3 µM; in [2], greater than 60 µM; in [3] it was 58.6 µM; in data set [4], 49.5 µM. Moreover, the Activity entry in data set [6] is “Dose-dependent effect”; in [5], “Non-toxic”.
As to `CC(C)(Oc1ccc(CCNC(=O)c2ccc(Cl)cc2)cc1)C(=O)O` [BEZAFIBRATE], the EC50 in data set [1] stood at 1.05 µM. That is a single-digit micromolar value.
As for `O=C(O)c1cc(/N=N/c2ccc(S(=O)(=O)Nc3ccccn3)cc2)ccc1O` [SULFASALAZINE], the IC50 in data set [7] was found to be 0.9 µM.
As for `c1cc2c(cc1[C@H]1OC[C@H]3[C@@H]1CO[C@H]3c1ccc3c(c1)OCO3)OCO2` [ASARININ], the half-inhibitory concentration (IC50) in data set [7] came out at 7.1 µM. The inhibition entry in [8] and in data set [9] was “Dose-dependent effect” each time. This compound gave a concentration for a half-maximal effect (EC50) in data set [1] greater than 60 µM. Besides, the Activity entry in data set [5] was “Non-toxic”.
In the case of `c1cc2c(cc1[C@H]1OC[C@H]3[C@@H]1CO[C@@H]3c1ccc3c(c1)OCO3)OCO2` [SESAMIN], in data set [7], the half-inhibitory concentration (IC50) came out at 9.4 µM. Further, the inhibition result in [8] and in [9] was “Dose-dependent effect” each time. For the same compound, the EC50 in data set [1] was greater than 60 µM. In data set [5], the Activity entry is “Non-toxic”.
Take `CC1=CC(=O)C2C(C1=O)C2(C)C` (racemic): the EC50 in [1] was greater than 60 µM. The Activity result in [5] is “Non-toxic”.
Take `CC=C/C=C\CC/C=C/C=C/C(=O)NCC(C)C`: in [7], the half-inhibitory concentration (IC50) was 6.4 µM. In addition, the inhibition result in data set [8] and in data set [9] was “Dose-dependent effect” in each case. Besides, the EC50 is 58.6 µM in [1], 46.1 µM in data set [2], 52.3 µM in data set [3] and 51.1 µM in data set [4]. In data set [5], the Activity entry was “Non-toxic”.
Turning to `COc1ccc([C@@H](O)[C@H](O)CO)cc1OC`, the concentration for a half-maximal effect (EC50) in data set [1] amounted to 20.3 µM; in data set [2] it was 15.7 µM; in [3] it was 19.3 µM; in data set [4], 22.6 µM. The Activity result in [10] is “Dose-dependent effect”; in data set [5] it was “Non-toxic”.
`COc1cc([C@@H]2OC[C@@H]3[C@H]2CO[C@H]3c2ccc3c(c2)OCO3)ccc1O` [PIPERITOL]: the EC50 in data set [1] amounted to 20.9 µM; in data set [2], 53.2 µM; in data set [3], 18.9 µM; in data set [4], 33.9 µM. For the same compound, in [5], the Activity result is reported as “Non-toxic”.
With `CC(C)(O)C1=C[C@@H](O)[C@@](C)(O)CC1`, the EC50 stood at 4.3 µM in data set [1], 19.5 µM in data set [2], 21.7 µM in [3] and 48.5 µM in data set [4]. Besides, the Activity result in data set [10] is “Dose-dependent effect”; in data set [5] it was “Non-toxic”.
For the compound `CC(C)(Oc1ccc(C2CC2(Cl)Cl)cc1)C(=O)O` (stereo not drawn) [CIPROFIBRATE], the EC50 in [2] worked out at 0.9 µM.
For `COc1cc([C@H]2OC[C@@H]3[C@H]2CO[C@H]3c2ccc3c(c2)OCO3)ccc1O` [PLUVIATILOL], the EC50 in data set [1] was 1.7 µM; in data set [2], greater than 60 µM; in data set [3], 48.7 µM; in data set [4], 53.1 µM. Moreover, in data set [5], the Activity entry is listed as “Non-toxic”.
In the case of `C/C=C\CC/C=C/C=C/C(=O)NCC(C)C`, the EC50 in [1] was 2 µM; in [2], 4 µM; in data set [3] it was 3.6 µM; in data set [4] it was 4.9 µM. For the same compound, the Activity result was “Dose-dependent effect” in [10] and “Non-toxic” in [5].
In the case of `COc1cc([C@H]2OC[C@H]3[C@@H]2CO[C@H]3c2ccc3c(c2)OCO3)cc(OC)c1O`, the 50% effective concentration (EC50) in data set [1] is 6.2 µM; in [2] it was greater than 60 µM; in [3], 22.6 µM; in data set [4], 47.6 µM. In addition, the Activity result in data set [5] is listed as “Non-toxic”.
In data set [4], `CCCc1c(OCCCOc2ccc(OCC(=O)O)cc2)ccc(C(C)=O)c1O` returned a 50% effective concentration (EC50) of 0.64 µM.
